For one assay, the target named is human CYP11B1 (Homo sapiens (Human), UniProt P15538). Nature of the assay: Cellular assay for CYP11B1 inhibition (V79MZh11B1 hamster fibroblasts, substrate 11-deoxycorticosterone). Particulars: for IC50: read-out: IC50 value CYP11B1, Hamster fibroblasts expressing human CYP11B1, substrate 11-deoxycorticosterone, 100 nM, mean of at least three experiments; for sf: selectivity factor: IC50 (CYP11B2)/IC50 (CYP11B1): ratio IC50 (CYP11B2)/IC50 (CYP11B1).

The target in a further assay is human CYP11B2 (Homo sapiens (Human), UniProt P19099). Nature of the assay: Cellular assay for CYP11B2 inhibition (V79MZh11B2 hamster fibroblasts, substrate 11-deoxycorticosterone). Conditions: for IC50: read-out: IC50 value CYP11B2, Hamster fibroblasts expressing human CYP11B2, 100 nM, mean of at least three experiments, n.i. = no inhibition at an inhibitor concentration of 500 nM.

Some results are limits rather than exact numbers.

Chain of human CYP11B2 (P19099 25-503): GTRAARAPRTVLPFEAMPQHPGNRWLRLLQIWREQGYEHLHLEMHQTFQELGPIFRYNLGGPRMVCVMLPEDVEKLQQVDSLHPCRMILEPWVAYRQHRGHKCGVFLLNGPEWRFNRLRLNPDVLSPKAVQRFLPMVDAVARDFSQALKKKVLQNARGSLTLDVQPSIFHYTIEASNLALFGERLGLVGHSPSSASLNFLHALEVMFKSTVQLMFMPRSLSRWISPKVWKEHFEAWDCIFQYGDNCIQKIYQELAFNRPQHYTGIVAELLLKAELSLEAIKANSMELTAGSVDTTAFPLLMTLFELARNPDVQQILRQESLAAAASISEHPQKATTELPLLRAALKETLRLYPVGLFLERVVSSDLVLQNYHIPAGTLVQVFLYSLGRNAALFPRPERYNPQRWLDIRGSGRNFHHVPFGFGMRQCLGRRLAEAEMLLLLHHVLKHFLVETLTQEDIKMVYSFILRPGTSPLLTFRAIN
Chain of human CYP11B1 (P15538 25-503): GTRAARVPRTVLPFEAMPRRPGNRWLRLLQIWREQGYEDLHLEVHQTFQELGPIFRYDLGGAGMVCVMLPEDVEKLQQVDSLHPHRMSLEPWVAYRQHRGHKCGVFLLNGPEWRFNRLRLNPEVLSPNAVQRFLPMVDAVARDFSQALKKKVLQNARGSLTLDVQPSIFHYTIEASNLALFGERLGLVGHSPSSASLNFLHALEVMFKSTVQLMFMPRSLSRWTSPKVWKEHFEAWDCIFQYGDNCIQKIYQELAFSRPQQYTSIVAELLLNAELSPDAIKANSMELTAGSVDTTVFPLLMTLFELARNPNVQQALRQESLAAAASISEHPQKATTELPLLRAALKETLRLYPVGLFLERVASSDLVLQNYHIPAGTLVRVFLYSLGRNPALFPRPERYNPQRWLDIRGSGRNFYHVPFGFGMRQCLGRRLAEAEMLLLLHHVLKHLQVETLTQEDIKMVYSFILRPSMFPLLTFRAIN

Consider `c1cn(Cc2ccc(-c3cncnc3)nc2)cn1` [Compound 28, 5-(5-Imidazol-1-ylmethyl-pyridin-2-yl)-pyrimidine], for which, on human CYP11B1, the IC50 was found to be 971 nM. For the same molecule, the “IC50 value CYP11B2” value on human CYP11B2 (Hamster fibroblasts expressing human CYP11B2, 100 nM, mean of at least three experiments, n.i. = no inhibition at an inhibitor concentration of 500 nM) is given as “n.i.^d”.

As for `c1cc(Cn2ccnc2)ccn1` [Compound 2, 4-Imidazol-1-ylmethyl-pyridine], the IC50 on human CYP11B1 was 663 nM; at human CYP11B2, above 1000 nM.

`c1ccc2oc(-c3ccc(Cn4ccnc4)cn3)cc2c1` [Compound 41, 2-Benzo[b]furan-2-yl-5-imidazol-1-ylmethyl-pyridine]: the IC50 is 500 nM at human CYP11B1 and above 1000 nM on human CYP11B2.

As to `c1cc(-c2ccc(Cn3ccnc3)cn2)ccn1` [Compound 27, 5-Imidazol-1-ylmethyl-[2,4′]bipyridinyl], on human CYP11B1, the “sf: selectivity factor: IC50 (CYP11B2)/IC50 (CYP11B1)” value (shortened to “sf: selectivity factor: IC50”) is 3.5 and the IC50 was 139 nM. The IC50 on human CYP11B2 is 487 nM.

On to `c1cncc(Cn2ccnc2)c1` [Compound 3, 3-Imidazol-1-ylmethyl-pyridine], for which the IC50 at human CYP11B1 was 816 nM; at human CYP11B2 it was above 1000 nM.

Turning to `c1ccc2cc(-c3ccc(Cn4ccnc4)cn3)ccc2c1` [Compound 24, 5-Imidazol-1-ylmethyl-2-naphthalen-2-yl-pyridine], at human CYP11B1, the “sf: selectivity factor: IC50” value was determined as 3.2. Moreover, the IC50 on human CYP11B1 is 246 nM; at human CYP11B2, 782 nM.

For the molecule `c1ccc2sc(-c3ccc(Cn4ccnc4)cn3)cc2c1` [Compound 37, 2-Benzo[b]thiophen-2-yl-5-imidazol-1-ylmethyl-pyridine], the “sf: selectivity factor: IC50” value on human CYP11B1 is listed as 1.0. Also, the IC50 on human CYP11B1 was found to be 269 nM; on human CYP11B2, 281 nM.

Turning to `Clc1ncc(Cn2ccnc2)cc1Br` [Compound 6, 3-Bromo-2-chloro-5-imidazol-1-ylmethyl-pyridine], on human CYP11B1, the “sf: selectivity factor: IC50” value is listed as 3.4 and the IC50 was 168 nM. Further, the IC50 on human CYP11B2 is 576 nM.

Regarding `c1cncc(-c2ccc(Cn3ccnc3)cn2)c1` [Compound 26, 5-Imidazol-1-ylmethyl-[2,3′]bipyridinyl], at human CYP11B1, the “sf: selectivity factor: IC50” value is 8 and the IC50 was 502 nM. Moreover, the IC50 on human CYP11B2 came out at 3960 nM.

As for `N#Cc1ncccc1Cn1ccnc1` [Compound 4, 3-Imidazol-1-ylmethyl-pyridine-2-carbonitrile], the IC50 on human CYP11B1 is 971 nM; on human CYP11B2, above 1000 nM.

Consider `c1ccc(-c2ccc(Cn3ccnc3)cn2)cc1` [Compound 1, 5-Imidazol-1-ylmethyl-2-phenyl-pyridine], for which the “sf: selectivity factor: IC50” value on human CYP11B1 was 18. Further, the values for the IC50 on human CYP11B1 and on human CYP11B2 were 152 nM and 2770 nM, respectively.

As for `N#Cc1ccc(-c2ccc(Cn3ccnc3)cn2)cc1` [Compound 20, 4-(5-Imidazol-1-ylmethyl-pyridin-2-yl)-benzonitrile], the IC50 is 782 nM on human CYP11B1 and above 1000 nM on human CYP11B2.

For the molecule `COc1ccc(-c2ccc(Cn3ccnc3)cn2)cn1` [Compound 29, 5-Imidazol-1-ylmethyl-6′-methoxy-[2,3′]bipyridinyl], the IC50 at human CYP11B1 and at human CYP11B2 was above 1000 nM each time.

`Clc1ccc(-c2ccc(Cn3ccnc3)cn2)s1` [Compound 33, 2-(5-Chloro-thiophen-2-yl)-5-imidazol-1-ylmethyl-pyridine]: the “sf: selectivity factor: IC50” value on human CYP11B1 turned out to be 2.6. Moreover, the IC50 at human CYP11B1 amounted to 362 nM; on human CYP11B2 it was 929 nM.

In the case of `N#Cc1cccc(-c2ccc(Cn3ccnc3)cn2)c1` [Compound 19, 3-(5-Imidazol-1-ylmethyl-pyridin-2-yl)-benzonitrile], the IC50 is 409 nM on human CYP11B1 and above 1000 nM at human CYP11B2.

On to `c1ccc2c(-c3ccc(Cn4ccnc4)cn3)cncc2c1` [Compound 30, 4-(5-Imidazol-1-ylmethyl-pyridin-2-yl)-isoquinoline], for which, at human CYP11B1, the “sf: selectivity factor: IC50” value stood at 10 and the IC50 was 95 nM. Besides, at human CYP11B2, the IC50 amounted to 914 nM.

With `CCOC(=O)c1cncn1[C@H](C)c1ccccc1` [ETO, etomidate, reference compound], the IC50 at human CYP11B2 is 0.1 nM.
